Source: paper PMC12016531 (Applied and Environmental Microbiology, 2025)

Experiments:
[1] = test system: L. monocytogenes ATCC19111; test: Time-kill curves (OD600 and CFU); type: cell-based, Listeria monocytogenes
From the text: Cell growth was monitored hourly by measuring CFU on TSB plates and OD600 values of the cultures.

[2] = test system: L. monocytogenes ATCC 19114; test: MIC/MBC microdilution; type: cell-based, Listeria monocytogenes; settings: lowest concentration that killed 99.9%; TSB-YE; highest concentration 100 µM
[3] = test system: L. monocytogenes ATCC 19115; test: MIC/MBC microdilution; type: cell-based, Listeria monocytogenes; settings: lowest concentration that killed 99.9%; TSB-YE; highest concentration 100 µM
[4] = test system: L. monocytogenes NCT0890; test: MIC/MBC microdilution; type: cell-based, Listeria monocytogenes; settings: lowest concentration that killed 99.9%; TSB-YE; highest concentration 100 µM
[5] = test system: Pseudomonas aeruginosa ATCC 27853; test: MIC/MBC microdilution; type: cell-based; settings: NB, highest concentration 100 µM
Protocol: (§1) The microdilution method ([25]) was used to measure the MIC of mycoidesin against indicator strains (Table S2). HPLC-purified mycoidesin was weighed and dissolved in a liquid culture medium to prepare various concentrations of mycoidesin (200.00, 100.00, 50.00, 25.00, 12.50, 6.25, 3.13, 1.56, 0.78, 0.39, 0.20, and 0.10 µM). A volume of 50 µL of different concentrations of mycoidesin solutions and 50 µL culture (1 × 10^6 CFU/mL) of the indicator strain were mixed in 96-well plates. The final concentrations of mycoidesin were 100.00, 50.00, 25.00, 12.50, 6.25, 3.13, 1.56, 0.78, 0.39, 0.20, 0.10, and 0.05 µM. […] The minimum bactericidal concentration (MBC) was the lowest concentration that killed 99.9% of the bacterial population. Nisin A was purified (Cayman Chemical, USA) as previously described ([26]) and was used to measure and compare the MIC values of L. monocytogenes strains and mycoidesin.

[6] = test system: Klebsiella pneumoniae CMCC 46117; test: MIC/MBC microdilution; type: cell-based; settings: NB, highest concentration 100 µM
Protocol: as §1

[7] = test system: Shigella serogroups CMCC 51105; test: MIC/MBC microdilution; type: cell-based; settings: NB, highest concentration 100 µM
Protocol: as §1

[8] = test system: Salmonella enterica serotype Paratyphi CMCC 50093; test: MIC/MBC microdilution; type: cell-based; settings: NB, highest concentration 100 µM
Protocol: as §1

[9] = test system: Escherichia coli ATCC 25922; test: MIC/MBC microdilution; type: cell-based; settings: NB, highest concentration 100 µM
Protocol: as §1

[10] = test system: Serratia marcescens CMCC 41002; test: MIC/MBC microdilution; type: cell-based; settings: NB, highest concentration 100 µM
Protocol: as §1

[11] = test system: Salmonella Typhimurium ATCC 14028; test: MIC/MBC microdilution; type: cell-based; settings: NB, highest concentration 100 µM
Protocol: as §1

[12] = test system: Acinetobacter baumannii ATCC 19606; test: MIC/MBC microdilution; type: cell-based; settings: NB, highest concentration 100 µM
Protocol: as §1

[13] = test system: L. monocytogenes CMCC 54002; test: MIC/MBC microdilution; type: cell-based, Listeria monocytogenes; settings: lowest concentration that killed 99.9%; TSB-YE; highest concentration 100 µM
[14] = test system: L. monocytogenes ATCC 19111; test: MIC/MBC microdilution; type: cell-based, Listeria monocytogenes; settings: lowest concentration that killed 99.9%; TSB-YE; highest concentration 100 µM
[15] = test system: L. monocytogenes ATCC 19113; test: MIC/MBC microdilution; type: cell-based, Listeria monocytogenes; settings: lowest concentration that killed 99.9%; TSB-YE; highest concentration 100 µM
[16] = test system: L. monocytogenes ATCC19111; test: Potassium release and SEM (cell membrane damage); type: cell-based, Listeria monocytogenes; settings: potassium release 1×, 8×, 32× MIC, 1 h; SEM 8× and 32× MIC, 3 h, 30°C
Protocol: The amount of potassium released was measured using a HI96750 Potassium Photometer.
Bacillus cereus CMCC63301 and L. monocytogenes ATCC19111 were grown in TSB medium to an OD600 of 0.3. […] The cells were harvested after centrifugation (6,000 × g, 10 min), washed with PBS buffer thrice, and fixed with 2.5% (vol/vol) glutaraldehyde for 12 h at 4°C. Subsequently, the cells were subjected to gradient dehydration for 10 min, treated with isoamyl acetate for 10 min, dried with a lyophilizer for 12 h, coated with gold-palladium, and observed using a Zeiss Gemini360 instrument ([18]).

[17] = test system: L. monocytogenes ATCC 51780; test: MIC/MBC microdilution; type: cell-based, Listeria monocytogenes; settings: lowest concentration that killed 99.9%; TSB-YE; highest concentration 100 µM
[18] = test system: L. monocytogenes CICC 21632; test: MIC/MBC microdilution; type: cell-based, Listeria monocytogenes; settings: lowest concentration that killed 99.9%; TSB-YE; highest concentration 100 µM
[19] = test system: L. monocytogenes ATCC 19116; test: MIC/MBC microdilution; type: cell-based, Listeria monocytogenes; settings: lowest concentration that killed 99.9%; TSB-YE; highest concentration 100 µM
[20] = test system: L. monocytogenes LM605; test: MIC/MBC microdilution; type: cell-based, Listeria monocytogenes; settings: lowest concentration that killed 99.9%; TSB-YE; highest concentration 100 µM
[21] = test system: L. monocytogenes ATCC BAA-751; test: MIC/MBC microdilution; type: cell-based, Listeria monocytogenes; settings: lowest concentration that killed 99.9%; TSB-YE; highest concentration 100 µM
[22] = test system: L. monocytogenes ATCC 15313; test: MIC/MBC microdilution; type: cell-based, Listeria monocytogenes; settings: lowest concentration that killed 99.9%; TSB-YE; highest concentration 100 µM
[23] = test system: B. subtilis CMCC63501; test: Stability: residual antimicrobial activity by agar diffusion; type: physicochemical, Bacillus subtilis; settings: up to 12 h
Protocol: After treatment for 2, 4, 6, 8, 10, and 12 h, the residual antimicrobial activity of the samples was measured using the agar diffusion method, with B. subtilis CMCC63501 as the indicator strain.

[24] = test system: L. monocytogenes ATCC19111; test: Intracellular accumulation of UDP-MurNAc-pentapeptide; type: cell-based, Listeria monocytogenes; settings: mycoidesin 1× and 2× MIC, vancomycin 10× MIC; 60 min; chloramphenicol 130 µg/mL pre-incubation 15 min; HPLC, MS
Protocol: Bacillus cereus CMCC63301 and L. monocytogenes ATCC19111 were grown to an OD600 of 0.3 and incubated with chloramphenicol (130 µg/mL) for 15 min. Mycoidesin (1× and 2× MIC) and vancomycin (10× MIC; positive control) were added and incubated for 60 min. The cells were collected, added to boiling water, treated for 15 min, centrifuged, and the supernatant was lyophilized. The intracellular accumulation of the peptidoglycan precursor UDP-MurNAc-pentapeptide was analyzed using HPLC (Hypersil ODS column) and identified via mass spectrometry ([27]).

[25] = lowest concentration that killed 99.9%

C/C=C1\NC(=O)CNC(=O)[C@H](CCSC)NC(=O)[C@@H]2CS[C@@H](C)[C@@H](NC(=O)[C@@H]3CSC[C@@H](NC(=O)[C@H](CC(C)C)NC(=O)[C@H](CC(N)=O)NC(=O)[C@@H](N)Cc4ccc(O)cc4)C(=O)N[C@@H](C)C(=O)N[C@@H](C)C(=O)N[C@@H]([C@@H](C)CC)C(=O)N[C@@H](C)C(=O)N[C@@H](CC(=O)O)C(=O)N[C@@H](C)C(=O)N[C@@H](C)C(=O)NCC(=O)N[C@@H](CC(C)C)C(=O)N[C@@H](CCCCN)C(=O)NCC(=O)N[C@@H](CC(N)=O)C(=O)N[C@@H](Cc4ccc(O)cc4)C(=O)NCC(=O)N[C@@H](CCCCN)C(=O)N[C@@H](Cc4ccccc4)C(=O)N3)C(=O)N[C@@H](Cc3ccc(O)cc3)C(=O)N[C@H](CSC[C@@H](C(=O)NCC(=O)N[C@@H](CO)C(=O)O)NC(=O)[C@H](CO)NC(=O)[C@H](C(C)C)NC1=O)C(=O)N[C@@H](C)C(=O)N[C@@H](CCC(=O)O)C(=O)N2 [mycoidesin]
effect on growth ([1]; 1×–32× MIC (0.39–12.5 µM), TSB, 30°C, 3 h, OD600): suppressed by mycoidesin in a time- and concentration-dependent manner
type of antimicrobial effect ([1]; low and high concentrations (1×–32× MIC, 0.39–12.5 µM)): bacteriostatic activity
cell death (viable count) ([1]; up to 32× MIC (12.5 µM), 30°C, 3 h, CFU): did not cause L. monocytogenes cell membrane damage or cell death
MBC [2]: NA (No activity was detected even at the highest concentration of mycoidesin (100 µM))
MBC [3]: NA (No activity was detected even at the highest concentration of mycoidesin (100 µM))
MBC [4]: NA (No activity was detected even at the highest concentration of mycoidesin (100 µM))
MBC [5, 25]: NA (No activity was detected even at the highest concentration of mycoidesin (100 µM))
MIC ([5]; microdilution, 30°C, 16 h): NA (No activity was detected even at the highest concentration of mycoidesin (100 µM))
MBC [6, 25]: NA (No activity was detected even at the highest concentration of mycoidesin (100 µM))
MIC ([6]; microdilution, 30°C, 16 h): NA (No activity was detected even at the highest concentration of mycoidesin (100 µM))
MBC [7, 25]: NA (No activity was detected even at the highest concentration of mycoidesin (100 µM))
MIC ([7]; microdilution, 30°C, 16 h): NA (No activity was detected even at the highest concentration of mycoidesin (100 µM))
MBC [8, 25]: NA (No activity was detected even at the highest concentration of mycoidesin (100 µM))
MIC ([8]; microdilution, 30°C, 16 h): NA (No activity was detected even at the highest concentration of mycoidesin (100 µM))
MBC [9, 25]: NA (No activity was detected even at the highest concentration of mycoidesin (100 µM))
MIC ([9]; microdilution, 30°C, 16 h): NA (No activity was detected even at the highest concentration of mycoidesin (100 µM))
MBC [10, 25]: NA (No activity was detected even at the highest concentration of mycoidesin (100 µM))
MIC ([10]; microdilution, 30°C, 16 h): NA (No activity was detected even at the highest concentration of mycoidesin (100 µM))
MBC [11, 25]: NA (No activity was detected even at the highest concentration of mycoidesin (100 µM))
MIC ([11]; microdilution, 30°C, 16 h): NA (No activity was detected even at the highest concentration of mycoidesin (100 µM))
MBC [12, 25]: NA (No activity was detected even at the highest concentration of mycoidesin (100 µM))
MIC ([12]; microdilution, 30°C, 16 h): NA (No activity was detected even at the highest concentration of mycoidesin (100 µM))
MBC [13]: NA (No activity was detected even at the highest concentration of mycoidesin (100 µM))
MBC [14]: NA (No activity was detected even at the highest concentration of mycoidesin (100 µM))
MBC [15]: NA (No activity was detected even at the highest concentration of mycoidesin (100 µM))
cell membrane damage [16]: did not cause L. monocytogenes cell membrane damage or cell death
MBC [17]: NA (No activity was detected even at the highest concentration of mycoidesin (100 µM))
MBC [18]: NA (No activity was detected even at the highest concentration of mycoidesin (100 µM))
MBC [19]: NA (No activity was detected even at the highest concentration of mycoidesin (100 µM))
MBC [20]: NA (No activity was detected even at the highest concentration of mycoidesin (100 µM))
MBC [21]: NA (No activity was detected even at the highest concentration of mycoidesin (100 µM))
MBC [22]: NA (No activity was detected even at the highest concentration of mycoidesin (100 µM))
residual antimicrobial activity ([23]; pH 7.0, 37°C, mycoidesin 6.25 µM, nisin A 12.5 µM (4× MIC)): remained unchanged
residual antimicrobial activity ([23]; pH 7.0, 60°C, mycoidesin 6.25 µM (4× MIC)): decreased with increasing incubation time
residual antimicrobial activity ([23]; pH 8.0, 37°C, mycoidesin 6.25 µM, nisin A 12.5 µM (4× MIC)): decreased
residual antimicrobial activity ([23]; pH 8.0, 60°C, mycoidesin 6.25 µM (4× MIC)): decreased with increasing incubation time
Intracellular accumulation of UDP-MurNAc-pentapeptide [24]: observed
